Laboratory results reported in BindingDB's records for doi:10.1016/j.bmcl.2013.01.017 (Vanderbilt University Medical Center, 2013).

Target: T1, Muscarinic acetylcholine receptor M1 (Homo sapiens, UniProt P11229)
T1 sequence (P11229 whole entry): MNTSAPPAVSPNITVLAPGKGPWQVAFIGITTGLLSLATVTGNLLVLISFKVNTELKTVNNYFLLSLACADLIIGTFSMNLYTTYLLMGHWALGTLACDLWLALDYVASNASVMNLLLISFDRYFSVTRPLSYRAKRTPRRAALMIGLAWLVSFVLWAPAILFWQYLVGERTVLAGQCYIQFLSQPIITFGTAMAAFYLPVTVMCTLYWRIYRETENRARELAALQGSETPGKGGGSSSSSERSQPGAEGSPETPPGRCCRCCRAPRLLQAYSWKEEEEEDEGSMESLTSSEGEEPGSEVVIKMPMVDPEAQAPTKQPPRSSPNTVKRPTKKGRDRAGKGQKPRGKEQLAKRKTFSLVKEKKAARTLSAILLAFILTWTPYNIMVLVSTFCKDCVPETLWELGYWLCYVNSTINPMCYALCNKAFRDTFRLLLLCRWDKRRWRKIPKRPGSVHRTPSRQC
Experiment: Positive allosteric modulation of human muscarinic M1 receptor

EC50: > 10 µM
Compound: Cn1cc(-c2ccc(CN3C(=O)C4(CCN(C5CCCC5)C4)c4ccccc43)c(F)c2)cn1 (stereo unspecified)
